According to patent US8637516B2 (IRM LLC, priority 2010, dated 2014):
pIC50: −log10 of the molar value.

Assays:
[1] = molecular target: T1, Ba/F3 cells transformed with human Tel-TrkA (Homo sapiens, UniProt P04629); assay: Proliferation of Ba/F3 cells transformed with human Tel-TrkA (Ba/F3 Tel-TrkA); assay type: cell-based; details: Table 1; 48 hours, Bright Glo luminescence; read-out: Ba/F3 Tel-TrkA
T1 construct: expressed in transfected cells; host or cells: Ba/F3 murine hematopoietic progenitor cells (luciferase expressing); the other entry of the earlier key: ETV6 (P41212, Transcription factor ETV6)
T1 sequence (P04629 510-796 limits assumed): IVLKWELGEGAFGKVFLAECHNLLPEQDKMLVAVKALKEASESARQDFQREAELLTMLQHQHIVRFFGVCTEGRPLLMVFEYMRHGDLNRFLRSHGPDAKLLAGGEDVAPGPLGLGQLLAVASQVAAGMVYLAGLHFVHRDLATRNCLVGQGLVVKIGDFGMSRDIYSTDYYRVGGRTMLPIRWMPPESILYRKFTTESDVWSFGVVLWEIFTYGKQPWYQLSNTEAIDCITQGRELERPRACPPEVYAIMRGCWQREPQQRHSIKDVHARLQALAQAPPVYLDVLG
From the text: (§1) Compound dilutions were made in 384 well plates.
(§2) The emited luminiscence is quantified using ViewLux (PerkinElmer).

[2] = tested on: parental Ba/F3 cells; assay: Proliferation of parental (untransformed, wt) Ba/F3 cells (BAF3/WT); assay type: cell-based, murine; details: Mus musculus, Table 1, parental cells with IL3, 48 hours
Procedure: as §1
Compounds were tested for their ability to inhibit the proliferation of wt Ba/F3 cells and Ba/F3 cells transformed with constitutively expressed luciferase reporter and BCR-ABL or Tel-FMS or other Tel fusion kinases (EGFR, JAK2, ALK, BMX, FGFR3, FGFR4, FGR2, FLT1, FLT3, IGF1R, INSR, KDR, KIT, LCK, LYN, MEK, MET, PDGFRα, PDGFRβ, RET, RON, ROS, SRC, SYK, TIE and TYRO) or BRafV600E. Parental Ba/F3 cells were maintained in media containing recombinant mouse IL3 and the kinase transformed Ba/F3 cells were maintained in media without IL-3. 7.5 nl of compounds were spotted to each well of 1536-well assay plates by Liquid handling System Echo 555 (Labcyte). 700 cells were then plated into each well of the assay plates in 7 uL culture media per well and compounds were tested at 0.17 nM to 10 uM in 3-fold serial dilutions. The cells were then incubated for 48 hours at 37° C. 3 uL of Bright-Glo® (Promega) was added to each well and the plates were read using ViewLux (PerkinElmer).
as §2

| Structure (SMILES) | pIC50 [1] | pIC50 [2] |
| --- | --- | --- |
| NC(=O)CNC(=O)c1cnc2ccc(N3C[C@@H](F)C[C@@H]3c3cccc(F)c3)nn12 [X-117] | 7.19 | < 5.00 |
| O=C(NCC1CCCC1)c1cnc2ccc(N3CCC[C@@H]3c3cccc(F)c3)nn12 [X-109] | 7.40 | 5.10 |
| NNC(=O)c1cnc2ccc(N3CCC[C@@H]3c3cccc(F)c3)nn12 [X-155] | 6.62 | < 5.00 |
| O=C(C=Cc1cccc(F)c1)c1cnc2ccc(N3CCC[C@@H]3c3cccc(F)c3)nn12 [X-126, (R)-3-(3-fluorophenyl)-1-(6-(2-(3-fluorophenyl)pyrrolidin-1-yl)imidazo[1,2-b]pyridazin-3-yl)prop-2-en-1-one] | 7.66 | 5.96 |
| CCOC(=O)c1cnc2ccc(N3C[C@H](F)C[C@H]3c3cccc(F)c3)nn12 [X-166, ethyl 6-((2S,4R)-4-fluoro-2-(3-fluorophenyl)pyrrolidin-1-yl)imidazo[1,2-b]pyridazine-3-carboxylate] | 6.50 | < 5.00 |
| O=C(NCCCN1CCOCC1)c1cnc2ccc(N3CCC[C@@H]3c3cccc(F)c3)nn12 [X-58] | 6.41 | < 5.00 |
| O=C(c1cnc2ccc(N3CCC[C@@H]3c3cccc(F)c3)nn12)C(F)F [X-124] | 6.07 | < 5.00 |
| O=C(NCc1nc2ccccc2s1)c1cnc2ccc(N3CCC[C@@H]3c3cccc(F)c3)nn12 [X-38] | 6.71 | < 5.00 |
| Fc1cccc([C@H]2CCCN2c2ccc3ncc(Br)n3n2)c1 [X-1, (R)-3-bromo-6-(2-(3-fluorophenyl)pyrrolidin-1-yl)imidazo[1,2-b]pyridazine] | 6.50 | < 5.00 |
| CC1(C)[C@H]2CC[C@@H](CNC(=O)c3cnc4ccc(N5CCC[C@@H]5c5cccc(F)c5)nn34)[C@@H]1C2 [X-110] | 6.68 | < 5.01 |
| [2H]C1(c2cccc(F)c2)CCCN1c1ccc2ncc(C(=O)OCC)n2n1 (centres unmarked) [X-162] | 7.10 | < 5.00 |
| CC(=O)O[C@@H](C)C(=O)N1CCC(NC(=O)c2cnc3ccc(N4CCC[C@@H]4c4cccc(F)c4)nn23)CC1 [X-33] | 6.98 | < 5.00 |
| O=C(N[C@H]1CCCC[C@@H]1CO)c1cnc2ccc(N3CCC[C@@H]3c3cccc(F)c3)nn12 [X-28] | 6.95 | < 5.00 |
| CC(C)NC(=O)c1ccc(F)cc1C1CC(F)(F)CN1c1ccc2ncc(C(N)=O)n2n1 (centres unmarked) [X-250] | 7.19 | < 5.00 |
| O=C(N[C@H]1CC[C@@H](O)CC1)c1cnc2ccc(N3CCC[C@@H]3c3cccc(F)c3)nn12 [X-80] | 8.22 | < 5.00 |
| O=C(NC1CCNCC1)c1cnc2ccc(N3C[C@@H](F)C[C@@H]3c3cccc(F)c3)nn12 [X-120] | 6.48 | < 5.00 |
| COC(=O)Nc1cnc2ccc(N3CCC[C@@H]3c3cccc(F)c3)nn12 [X-235] | 6.23 | < 5.00 |
| O=C(NCCN1CCOCC1)c1cnc2ccc(N3C[C@@H](F)C[C@@H]3c3cccc(F)c3)nn12 [X-113] | 8.05 | < 5.00 |
| CCOCC(=O)Nc1cnc2ccc(N3CCC[C@@H]3c3cccc(F)c3)nn12 [X-168, (R)-2-ethoxy-N-(6-(2-(3-fluorophenyl)pyrrolidin-1-yl)imidazo[1,2-b]pyridazin-3-yl)acetamide] | 7.77 | < 5.00 |
| CCOC(=O)c1cnc2ccc(N3CCCCC3c3cccc(F)c3)nn12 (centres unmarked) [X-156, ethyl 6-(2-(3-fluorophenyl)piperidin-1-yl)imidazo[1,2-b]pyridazine-3-carboxylate] | 7.03 | < 5.00 |
| NC(=NO)c1cnc2ccc(N3CCC[C@@H]3c3cccc(F)c3)nn12 [X-227, (Z)-6-(2-(3-fluorophenyl)pyrrolidin-1-yl)-N′-hydroxyimidazo[1,2-b]pyridazine-3-carboximidamide] | 7.36 | < 5.00 |
| COC(=O)[C@@H](CO)NC(=O)c1cnc2ccc(N3CCC[C@@H]3c3cccc(F)c3)nn12 [X-98] | 6.45 | < 5.00 |
| N#Cc1cc(F)cc([C@H]2C[C@H](F)CN2c2ccc3ncc(C(N)=O)n3n2)c1 [X-244] | 7.21 | < 5.00 |
| COc1ccc(OCC(=O)Nc2cnc3ccc(N4CCC[C@@H]4c4cccc(F)c4)nn23)cc1 [X-186] | 7.11 | < 5.00 |
| O=C(NCc1ccccc1F)c1cnc2ccc(N3CCC[C@@H]3c3cccc(F)c3)nn12 [X-69] | 6.98 | < 5.00 |
| O=C(NOC1CCCCO1)c1cnc2ccc(N3CCC[C@@H]3c3cccc(F)c3)nn12 (some centres unmarked) [X-144] | 6.89 | < 5.00 |

More lines, in order of rising pIC50 [1], values ahead:

| pIC50 [1] | Structure (SMILES) | pIC50 [2] |
| --- | --- | --- |
| 6.04 | CC(C)(C)OC(=O)N1CC[C@@H](NC(=O)c2cnc3ccc(N4CCC[C@@H]4c4cccc(F)c4)nn23)C1 [X-62] | < 5.00 |
| 6.22 | CCOC(=O)c1cnc2ccc(N3CC(F)(F)C(F)(F)[C@@H]3c3cccc(F)c3)nn12 [X-164, (S)-ethyl 6-(3,3,4,4-tetrafluoro-2-(3-fluorophenyl)pyrrolidin-1-yl)imidazo[1,2-b]pyridazine-3-carboxylate] | < 5.00 |
| 6.28 | CC(C)(Cc1ccc(F)cc1)NC(=O)c1cnc2ccc(N3CCC[C@@H]3c3cccc(F)c3)nn12 [X-41] | 5.05 |
| 6.35 | CC(C)OC(=O)Nc1cnc2ccc(N3CCC[C@@H]3c3cccc(F)c3)nn12 [X-234] | < 5.00 |
| 6.48 | NC(=O)c1cnc2ccc(N3CCOC[C@H]3c3cccc(F)c3)nn12 [X-17, (R)-6-(3-(3-fluorophenyl)morpholino)imidazo[1,2-b]pyridazine-3-carboxamide] | < 5.00 |
| 6.57 | N#Cc1cnc2ccc(N3CCC[C@@H]3c3cccc(F)c3)nn12 [X-2, (R)-6-(2-(3-fluorophenyl)pyrrolidin-1-yl)imidazo[1,2-b]pyridazine-3-carbonitrile] | < 5.00 |
| 6.72 | O=C(NCCC1CCCC1)c1cnc2ccc(N3CCC[C@@H]3c3cccc(F)c3)nn12 [X-108] | 5.19 |
| 6.82 | CN1CCN(NC(=O)c2cnc3ccc(N4CCC[C@@H]4c4cccc(F)c4)nn23)CC1 [X-154, (R)-6-(2-(3-fluorophenyl)pyrrolidin-1-yl)-N-(4-methylpiperazin-1-yl)imidazo[1,2-b]pyridazine-3-carboxamide] | < 5.00 |
| 6.91 | CC(C)S(=O)(=O)N1CC[C@H](NC(=O)c2cnc3ccc(N4CCC[C@@H]4c4cccc(F)c4)nn23)C1 [X-31] | < 5.00 |
| 7.05 | O=C(N[C@H]1CCCC[C@@H]1O)c1cnc2ccc(N3CCC[C@@H]3c3cccc(F)c3)nn12 [X-82] | < 5.00 |
| 7.14 | CCOC(=O)c1cnc2ccc(N3C[C@H](O)C[C@@H]3c3cccc(F)c3)nn12 [X-160, ethyl 6-((2R,4R)-2-(3-fluorophenyl)-4-hydroxypyrrolidin-1-yl)imidazo[1,2-b]pyridazine-3-carboxylate] | < 5.00 |
| 7.27 | O=C(NC[C@@H]1CCCO1)c1cnc2ccc(N3CCC[C@@H]3c3cccc(F)c3)nn12 [X-85] | < 5.00 |
| 7.48 | CC(C)(C)ONC(=O)c1cnc2ccc(N3CCC[C@@H]3c3cccc(F)c3)nn12 [X-145] | < 5.00 |
| 8.52 | NC(=O)c1cnc2ccc(N3C[C@@H](F)C[C@@H]3c3cc(F)cc(F)c3)nn12 [X-241] | 5.17 |
